PubChem BioAssay AID977630 (Broad Institute, 2014)
Inconclusive results are not listed. Activity calls are given as the source filed them.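 Rule for the calls: active = Normal-ribosome green reporter loss at least double humanized-ribosome red reporter loss, with overall culture growth inhibition under a set limit; inconclusive = no clear call, values can overlap the other calls; inactive = the rest.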

Experiments:
[1] = test system: E. coli humanized H38 RFP strain growth, mixed culture, 24 h; test: growth inhibition of wild-type GFP E. coli, H38-humanized RFP comparator, dose response, H38 mutant RFP vs wild-type GFP, cherry-pick (AID 977630)
[2] = test system: E. coli wild-type GFP growth, mixed culture, 24 h; test: as above
[3] = E. coli mixed culture total OD600 growth, 24 h

Compound | AC50 [1] | AC50 [2] | AC50 [2, 3]
CN(c1ccc(C(=O)NCc2cccs2)cc1)S(=O)(=O)c1ccccc1 | > 100 µM |  | 
CN(C(=O)COc1ccccc1C(=O)NCCOc1ccccc1)c1ccccc1 | 44.2 µM | > 100 µM (inactive) | 
CC(C)C[C@H]1COc2cc(Br)ccc2S(=O)(=O)N1 | 47 µM | > 100 µM (inactive) | 
CSc1nnnn1-c1ccc(Cl)cc1 | > 100 µM |  | 
COc1ccc(-c2cc(C(=O)O)nc3ccc4ccccc4c23)cc1OC | > 100 µM |  | 
Fc1ccccc1C1CCN(Cc2nc(COc3ccccc3)no2)C1 (configuration not stated) | > 100 µM |  | 
Nc1nc2ccccc2n1CCOc1ccc(F)cc1 | < 0.6 µM | > 100 µM (inactive) | 
CCOC(=O)c1csc(NC(=O)CC2CCCC2)n1 | 51.7 µM | > 100 µM (inactive) | 
CC(C)(C)c1ccc(S(=O)(=O)NCc2ccc(C(=O)NCc3ccccn3)cc2)cc1 | 49.9 µM | > 100 µM (inactive) | > 100 µM
CC(C)(C)S(=O)(=O)Cc1nc(-c2ccc(Cl)c(Cl)c2)cs1 | > 100 µM |  | > 100 µM
CCc1cc2ccc(OC)cc2nc1SCC(=O)N1CCN(C(=O)c2ccco2)CC1 | > 100 µM | > 100 µM (inactive) | 
O=C1NC(CCc2ccccc2)C(=O)N1Cc1cccc2ccccc12 (configuration not stated) | 50.1 µM | > 100 µM (inactive) | 51.8 µM
O=C(NCc1ccccc1)c1ccc(-c2cn[nH]c2)c2ccoc12 | > 100 µM | > 100 µM (inactive) | 
Nc1ncncc1-c1ccc2ccccc2c1 | > 100 µM | > 100 µM (inactive) | 
Cc1ccccc1-c1nc(CS(=O)(=O)CC(=O)N2CCCCC2)c(C)o1 | > 100 µM |  | 45.5 µM
COC(=O)c1nc(-c2ccc(C)cc2)[nH]c1C(C)(C)C | > 100 µM |  | 
Cc1ccc([N+](=O)[O-])c(OCCn2cnc3ccccc32)c1 | > 100 µM |  | 
CCn1cc(Br)c(C(=O)Nc2ccc(C(=O)OC(C)C)cc2)n1 | 52 µM | > 100 µM (inactive) | 47.3 µM
Nc1nc(=S)ss1 | < 0.6 µM | > 100 µM (inactive) | > 100 µM
COc1cc(NC(=O)c2ccc(Cl)cc2)c(OC)cc1NC(=O)CN1CCCCC1 | > 100 µM | > 100 µM (inactive) | > 100 µM
Cc1cc(SCC(=O)OCC(=O)NCC2CCCO2)c(C)cc1Br (configuration not stated) | > 100 µM | > 100 µM (inactive) | 
Cc1ccccc1NS(=O)(=O)c1cc(C(=O)NCCC2=CCCCC2)ccc1C | > 100 µM |  | > 100 µM
O=C(CCCSc1nc2ccccc2s1)NCc1ccc2c(c1)OCO2 | > 100 µM | > 100 µM (inactive) | 43.8 µM
COc1ccc(-c2nn(-c3ccccc3C)cc2CNCc2cccnc2)cc1F | > 100 µM |  | > 100 µM
O=C(Nc1ccccc1N1CCOCC1)C1CCCCN1S(=O)(=O)c1ccccc1 (configuration not stated) | 49.8 µM |  | > 100 µM
CCOC(=O)[C@]12Cc3ccccc3[C@H]1N(C)C(=O)c1cc(OC)ccc12 | 48.7 µM | > 100 µM (inactive) | 34.2 µM
COc1cc(OC)cc(C(=O)N[C@H](C(=O)OCC(=O)Nc2ccc(F)c(F)c2F)C(C)C)c1 | > 100 µM | > 100 µM (inactive) | 

Compound | AC50 [1] | AC50 [2] | AC50 [2, 3]
CS(=O)(=O)c1ccc(Cl)c(NC(=O)COC(=O)c2c(Cl)cccc2Cl)c1 | > 100 µM | > 100 µM (inactive) | > 100 µM
COc1cc(NC(=O)C(c2ccccc2)c2ccccc2)c(C(=O)O)cc1OC | 22.3 µM | > 100 µM (inactive) | 
COc1ccc(OC2C(=O)N(Cc3ccc4c(c3)OCO4)C2c2cccs2)cc1 (configuration not stated) | 11.5 µM | > 100 µM (inactive) | 
CS(=O)(=O)N1CC2CCCN2c2ccc(C(F)(F)F)cc21 (configuration not stated) | > 100 µM | > 100 µM (inactive) | > 100 µM
COc1ccc(NS(=O)(=O)c2ccc(Cl)c(NC(=O)c3ccccc3F)c2)cc1 | > 100 µM | > 100 µM (inactive) | 
Cc1cc(C)n2nc(C(=O)Nc3cccc(S(=O)(=O)N(C)c4ccccc4)c3)nc2n1 |  | > 100 µM (inactive) | 
CCOC(=O)c1ccc(NC(=O)c2ccc(OC(C)C)c(OC)c2)cc1 |  |  | > 100 µM
Cc1ccc2c(N)c(C(=O)c3ccccc3)sc2n1 |  |  | > 100 µM
CN(C)CCCN(C(=O)CCSc1ccccc1)c1nc2cc3c(cc2s1)OCO3 |  | > 100 µM (inactive) | 
O=C1c2ccccc2NC(c2ccc(-c3cccc([N+](=O)[O-])c3)o2)N1O (configuration not stated) | 7.43 µM | > 100 µM (inactive) | 
CSc1ccc(CN(C)CC(=O)NC(C)c2ccccc2)cc1 (configuration not stated) |  |  | > 100 µM
CSc1nc2nc3c(cc2c(=O)n1-c1ccccc1C)CCCC3 |  | > 100 µM (inactive) | > 100 µM
O=C(Nc1ccccc1N1CCN(C(=O)c2ccccc2)CC1)c1ccc([N+](=O)[O-])o1 |  | > 100 µM (inactive) | 
O=c1c2cc(Br)ccc2[nH]c(=S)n1Cc1ccccc1 |  | > 100 µM (inactive) | 
Cc1onc(-c2ccccc2Cl)c1C(=O)Nc1ccc(Cl)cn1 |  | > 100 µM (inactive) | 
CCN(CC(=O)Nc1cccc(C#N)c1)CC(=O)Nc1cccc(OC)c1 |  | > 100 µM (inactive) | 
O=S1(=O)N[C@H](Cc2ccccc2)COc2cccc(N3CCC[C@H]3CO)c21 |  | > 100 µM (inactive) | 
Cc1nonc1C1CCCN1C(=O)c1cc(COc2ccc(F)cc2F)on1 (configuration not stated) |  | > 100 µM (inactive) | 
CN1OC[C@@H]2CN(C(=O)c3ccco3)[C@H](c3ccc(-c4ccc(C#N)cc4)cc3)C[C@@H]21 |  |  | > 100 µM
CC1CCCN(C(=O)C(C)Nc2cc(Cl)ccc2N2CCOCC2)C1 (configuration not stated) |  | > 100 µM (inactive) | 
COc1cccc(NC(=O)C2CCC(CNS(=O)(=O)c3cccc4cccnc34)CC2)c1 (configuration not stated) | > 100 µM |  | 
O=S(=O)(c1ccccc1)N1CCN=C1SCc1cccc(Cl)c1 |  | > 100 µM (inactive) | > 100 µM
COc1ccc(OC)c(NC(=O)COC(=O)C2CCN(C(=O)c3ccc(Cl)cc3)CC2)c1 |  | > 100 µM (inactive) | 
CN(CCOc1ccccc1)S(=O)(=O)c1ccccc1C#N |  | > 100 µM (inactive) | 
Cc1onc(-c2ccccc2Cl)c1C(=O)OCC(=O)c1ccccc1 |  |  | > 100 µM
Cc1c(Cc2ccccc2)sc(NC(=O)Cc2ccccc2)c1C(N)=O |  | > 100 µM (inactive) | 
O=C1OC[C@@H]2CCCN2C(=O)[C@@H](CC(=O)N(CCO)Cc2ccccc2)C/C=C\C[C@H]1Cc1ccc(F)cc1 |  | > 100 µM (inactive) | 
